Measurements: publication PMC6274503, “Chemical Constituents of Muehlenbeckia tamnifolia (Kunth) Meisn (Polygonaceae) and Its In Vitro α-Amilase and α-Glucosidase Inhibitory Activities” (Molecules, 2016)
Like-named read-outs stand apart in the source and are kept apart here.

Tests used:
[1] = target: α-glucosidase from Saccharomyces cerevisiae; assay: α-glucosidase inhibition assay (p-NPG substrate, pNP release over 60 min); type: biochemical; conditions: for IC50: compounds and acarbose, max concentration tested 1 mM, '-' = no inhibitory activity at maximum dose tested
Protocol: (§1) The α-amylase and α-glucosidase assays were evaluated using α-amylase from porcine pancreas (Type IV-B, Sigma A3176, St. Louis, MO, USA) and α-glucosidase from Saccharomyces cerevisiae (Tipe I, Sigma G5003, St. Louis, MO, USA). Starch was used as substrate for α-amylase and p-Nitrophenyl-α-D-glucopiranoside (p-NPG-Sigma, N1377) was used as substrate for α-glucosidase. For both enzymatic tests, a microplate reader (EPOCH 2, Biotek Instruments Inc. Winoosky, VT, USA) was used.
α-Glucosidase inhibitory activity was determined using a 96-well microtiter plate with p-nitrophenyl-α-D-glucopyranoside as the substrate, according to the method describe by Tao et al. [32], with slight modifications. Sample solutions were prepared by dissolving 10 mg in 1 mL MeOH:H2O (50:50). Several dilutions in PBS were made in case of getting complete enzyme inhibition. First, 75 μL of PBS (SIGMA-P4417) was mixed with 5 μL of the sample and 20 μL of the enzyme solution (0.15 U/mL in PBS pH 7.4), then it was pre-incubated at 37 °C for 5 min prior to the initiation of the reaction by adding the substrate. After pre-incubation, 20 μL of PNPG (5 mM in phosphate buffer, pH 7.4) was added and then incubated at 37 °C. […] The results were expressed as inhibition percentage by means of the formula described by Choi et al. [33] as follows: (2) Inhibition (%)=[(Ao−As)/Ao]×100 where A0 is the absorbance recorded for the enzymatic activity without inhibitor (control), and As is the absorbance recorded for the enzymatic activity in presence of the inhibitor (sample). IC50 value was calculated by curve fitting of data (GraphPad Prism 5.0).

[2] = target: T1, α-amylase from porcine pancreas (Sus scrofa, UniProt P00690); assay: α-amylase inhibitory activity (starch-iodine method); type: biochemical
T1 sequence (P00690 16-511): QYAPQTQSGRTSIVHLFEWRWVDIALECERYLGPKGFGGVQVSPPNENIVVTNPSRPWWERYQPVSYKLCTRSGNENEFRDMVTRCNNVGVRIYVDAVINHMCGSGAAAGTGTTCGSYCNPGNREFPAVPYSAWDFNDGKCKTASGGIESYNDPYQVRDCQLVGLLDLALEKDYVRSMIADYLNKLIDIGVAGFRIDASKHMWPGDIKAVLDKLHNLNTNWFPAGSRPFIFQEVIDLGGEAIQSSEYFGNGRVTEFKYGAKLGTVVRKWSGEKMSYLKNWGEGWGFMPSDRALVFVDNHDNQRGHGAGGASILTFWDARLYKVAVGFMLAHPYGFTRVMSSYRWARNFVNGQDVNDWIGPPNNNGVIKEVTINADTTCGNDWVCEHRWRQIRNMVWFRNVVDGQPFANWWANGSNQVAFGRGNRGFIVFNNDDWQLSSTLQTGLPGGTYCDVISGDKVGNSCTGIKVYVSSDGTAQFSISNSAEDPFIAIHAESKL
Protocol: as §1
The inhibitory activity is measured according to the method reported by Xiao et al. [30] with slight modifications. […] Starch solution was prepared by dissolving 1 g in 50 mL of 0.4 M NaOH and heated for 5 min at 100 °C. After cooling in iced water, the solution pH was adjusted to 7 with 2 M HCl and H2O was added to complete 100 mL. Sample solutions were prepared by dissolving 10 mg in 1 mL MeOH:H2O (50:50). Several dilutions in PBS (SIGMA-P4417) were made in case of getting complete enzyme inhibition. PBS solution (35 μL), substrate (35 μL) and sample (5 μL) solutions were mixed in a 96-well microtiter plate, and the mixture was pre-incubated at 37 °C for 1 min. Then, 20 μL of a 50 μg/mL α-amylase solution was added to each well. The plate was incubated for 15 min. […] The absorbance was measured in a microplate reader (EPOCH 2, Biotek Instruments Inc. Winoosky, VT, USA) at 580 nm. Inhibitory activity (%) was calculated according to the formula described by Kusano et al. [31] as follows: (1) Inhibition (%)=[1−(ABS2−ABS1)/(ABS4−ABS3)×100] where ABS1 is the absorbance of the incubated solution containing sample, starch and amylase, ABS2 is the absorbance of incubated solution containing sample and starch, ABS3 is the absorbance of incubated solution containing starch and amylase, and ABS4 is the absorbance of incubated solution containing starch. IC50 value was calculated by curve fitting of data (GraphPad Prism 5.0, GraphPad Software, Inc., La Jolla, CA, USA).

[3] = compounds and acarbose; max concentration tested 1 mM; '-' = inactive at maximum dose tested (<35% inhibition); read-out: IC50 α-amylase
[4] = read-out: IC50 α-amylase; compounds and acarbose; max concentration tested 1 mM; '-' = inactive at maximum dose tested (<35% inhibition)

`CCCCC/C=C\C/C=C\CCCCCCCC(=O)O` [Compound 6, Linoleic acid] gave an IC50 [1] of 0.42 µM and an IC50 [2, 3] greater than 62.5 µM.

With `C=C(C)[C@@H]1CC[C@]2(C)CC[C@]3(C)[C@H](CC[C@@H]4[C@@]5(C)CC[C@H](OC(C)=O)C(C)(C)[C@@H]5CC[C@]43C)[C@@H]12` [Compound 1, Lupeol acetate] the IC50 [1] was greater than 41.7 µM and the IC50 [2, 3] was greater than 62.5 µM.

`CC[C@H](CC[C@@H](C)[C@H]1CC[C@H]2[C@@H]3CC=C4C[C@@H](O)CC[C@]4(C)[C@H]3CC[C@]12C)C(C)C` [Compound 4, β-Sitosterol] showed an IC50 [1] greater than 41.7 µM and an IC50 [2, 3] greater than 62.5 µM.

Compound `C=C(C)[C@@H]1CC[C@]2(C)CC[C@]3(C)[C@H](CC[C@@H]4[C@@]5(C)CC[C@H](O)C(C)(C)[C@@H]5CC[C@]43C)[C@@H]12` [Compound 3, Lupeol] has an IC50 [1] greater than 41.7 µM and an IC50 [2, 3] greater than 62.5 µM.

`C[C@@H]1O[C@@H](Oc2c(-c3ccc(O)c(O)c3)oc3cc(O)cc(O)c3c2=O)[C@H](O)[C@H](O)[C@H]1O` [Compound 9, Quercitrin] showed an IC50 [1] of 7.77 µM and an IC50 [2, 4] greater than 62.5 µM.

`O=C(O)/C=C\c1ccc(O)cc1` [Compound 2, Cis-p-coumaric acid] showed an IC50 [1] greater than 41.7 µM and an IC50 [2, 4] greater than 62.5 µM.

With `O=C(O)/C=C/c1ccc(O)cc1` [Compound 5, Trans-p-coumaric acid] the “enzyme inhibition (α-glucosidase)” value ([1]; at the maximum dose tested (1 mM for compounds)) was 27%, the IC50 [1] was greater than 41.7 µM and the IC50 [2, 4] was greater than 62.5 µM.

`Oc1cc(O)c2c(c1)O[C@H](c1ccc(O)c(O)c1)[C@@H](O)C2` [Compound 7, (+)-Catechin] showed an IC50 [1] of 5.5 µM and an IC50 [2, 3] greater than 62.5 µM.
